Among the test systems are A498; ACHN; CAKI-1; COLO 205; HCT-116; HCT-15; HOP-92; Hs-578T; KM12; MCF7; MDA-N; NCI-H226; NCI-H23; NCI-H460; PC-3; RPMI-8226; SF-268; SK-MEL-5; UACC-257; UO-31.
What all share (assay): DTP human tumour cell line panel, 48 h

Each structure is given as a SMILES string.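 Where inhibition never reached the appropriate level, the endpoint shown equals the highest concentration tested. Otherwise, values were interpolated linearly from a five-concentration, 48-hour dose response in 96-well plates. At the GI50, growth is halved.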 Active and inactive are the calls of the source. Cut-off read from the data, not from the text of the source: active = GI50 up to about 1.1 µM and inactive = higher.

The term GI50 denotes the concentration giving 50% growth inhibition. As for `CN(CC(=O)O)Cc1oc(CO)cc(=O)c1O`, the GI50 is > 100 µM (inactive) in the experiment on A498; > 100 µM (inactive) with ACHN; > 100 µM (inactive) in the experiment on CAKI-1; > 100 µM (inactive) in the experiment with COLO 205; > 100 µM (inactive) in the experiment with HCT-116; more than 100 µM with HCT-15. The GI50 with HOP-92, in the experiment with Hs-578T, in the experiment on KM12, with MCF7, in the experiment on MDA-N and in the experiment with NCI-H226 was > 100 µM (inactive) throughout. In addition, the GI50 in the experiment with NCI-H23, with NCI-H460, with PC-3, in the experiment with RPMI-8226, with SF-268 and in the experiment on SK-MEL-5 was > 100 µM (inactive) each time. Also, the GI50 with UACC-257 and in the experiment on UO-31 was > 100 µM (inactive) in each case.
As for `C[C@@H]1CCC([C@@H](C)[C@H]2CC[C@H]3[C@@H]4CC[C@H]5C[C@@H](O)CC[C@]5(C)[C@H]4CC[C@]23C)=NC1`, the GI50 was > 70.1 µM (inactive) in the experiment on A498; 14 µM (inactive) in the experiment with ACHN; 12.7 µM (inactive) in the experiment on CAKI-1; 8.15 µM (inactive) in the experiment on COLO 205; 6.43 µM (inactive) in the experiment on HCT-116; 2.76 µM with HCT-15. In addition, the GI50 in the experiment with HOP-92 is > 41.9 µM (inactive); in the experiment with Hs-578T it was 33.7 µM (inactive); in the experiment on KM12, 5.06 µM (inactive); in the experiment with MCF7 it was 9.04 µM (inactive); in the experiment on MDA-N it was 9.53 µM (inactive); in the experiment with NCI-H226, > 29.8 µM (inactive). For the same compound, the GI50 is 17.7 µM (inactive) in the experiment with NCI-H23; 7.62 µM (inactive) in the experiment with NCI-H460; 10.1 µM (inactive) in the experiment on PC-3; 2.77 µM (inactive) in the experiment on RPMI-8226; 12.6 µM (inactive) in the experiment on SF-268; 7.64 µM (inactive) with SK-MEL-5. Besides, the GI50 with UACC-257 was 25.3 µM (inactive); in the experiment on UO-31, 10.4 µM (inactive).
Regarding `CC1CN1C(=O)NCCCCCCNC(=O)N1CC1C` (stereo not given), the GI50 in the experiment with A498 is > 100 µM (inactive); in the experiment on ACHN, 9.53 µM (inactive); with CAKI-1 it was 48.4 µM (inactive); in the experiment on COLO 205, > 100 µM (inactive); with HCT-116, 81.3 µM (inactive); in the experiment on HCT-15, more than 100 µM. Besides, the GI50 is > 93.5 µM (inactive) in the experiment on HOP-92; > 100 µM (inactive) in the experiment on Hs-578T; > 100 µM (inactive) with KM12; 70.3 µM (inactive) in the experiment on MCF7; > 100 µM (inactive) with MDA-N; > 75.7 µM (inactive) in the experiment with NCI-H226. Also, the GI50 in the experiment on NCI-H23 was 27.3 µM (inactive); with NCI-H460, 2.61 µM (inactive); in the experiment on PC-3, > 100 µM (inactive); in the experiment on RPMI-8226 it was > 100 µM (inactive); in the experiment with SF-268 it was 29.8 µM (inactive); in the experiment on SK-MEL-5, > 100 µM (inactive). Besides, the GI50 was > 100 µM (inactive) in the experiment on UACC-257 and 79.4 µM (inactive) in the experiment with UO-31.
`Cn1cnc2c1c(=O)n(CCNCCO)c(=O)n2C`: the GI50 is > 100 µM (inactive) in the experiment with A498; > 100 µM (inactive) in the experiment on ACHN; > 100 µM (inactive) in the experiment on CAKI-1; > 100 µM (inactive) with COLO 205; > 100 µM (inactive) in the experiment with HCT-116; more than 100 µM in the experiment with HCT-15. The GI50 with HOP-92, in the experiment on Hs-578T, in the experiment on KM12, in the experiment with MCF7, in the experiment on MDA-N and with NCI-H226 was > 100 µM (inactive) throughout. Further, the GI50 in the experiment on NCI-H23, in the experiment on NCI-H460, in the experiment on PC-3, in the experiment on RPMI-8226, with SF-268 and in the experiment with SK-MEL-5 was > 100 µM (inactive) in each case. The GI50 in the experiment on UACC-257 and in the experiment with UO-31 was > 100 µM (inactive) in each case.
On to `O=C1CC2C(=O)C1C(C(=O)O)C2C(=O)O` (stereo not given), for which the GI50 was > 100 µM (inactive) in the experiment with A498; > 100 µM (inactive) with ACHN; > 100 µM (inactive) with CAKI-1; > 100 µM (inactive) with COLO 205; > 100 µM (inactive) in the experiment with HCT-116; more than 100 µM in the experiment with HCT-15. The GI50 in the experiment on HOP-92, with Hs-578T, with KM12, in the experiment on MCF7, in the experiment with MDA-N and in the experiment with NCI-H226 was > 100 µM (inactive) throughout. Moreover, the GI50 in the experiment with NCI-H23, in the experiment on NCI-H460, in the experiment on PC-3, in the experiment on RPMI-8226, with SF-268 and in the experiment on SK-MEL-5 was > 100 µM (inactive) in each case. Moreover, the GI50 in the experiment with UACC-257 and in the experiment with UO-31 was > 100 µM (inactive) in each case.
`CN(O)C(=O)c1ccc(OCc2cccc(Cl)c2)cc1`: the GI50 with A498 was 25.8 µM (inactive); in the experiment on ACHN, 8.51 µM (inactive); in the experiment on CAKI-1 it was 18.5 µM (inactive); with COLO 205, 23.6 µM (inactive); in the experiment with HCT-116 it was 8.45 µM (inactive); in the experiment on HCT-15, 3.52 µM. The GI50 in the experiment on HOP-92 is 58.5 µM (inactive); in the experiment with Hs-578T it was 71.3 µM (inactive); with KM12, 27.5 µM (inactive); in the experiment with MCF7, 32.4 µM (inactive); with MDA-N it was 35.8 µM (inactive); with NCI-H226, 19.5 µM (inactive). Moreover, the GI50 is 11.4 µM (inactive) with NCI-H23; 9.4 µM (inactive) with NCI-H460; 24.5 µM (inactive) with PC-3; 14.8 µM (inactive) in the experiment with RPMI-8226; 21.2 µM (inactive) in the experiment on SF-268; 27.8 µM (inactive) with SK-MEL-5. For the same compound, the figures for the GI50 in the experiment on UACC-257 and with UO-31 were 38.2 µM (inactive) and 16.9 µM (inactive), respectively.
Consider `S=C1SSC2N=CC=CC12` (stereo not given), for which the GI50 in the experiment with A498 is 29.9 µM (inactive); in the experiment on ACHN, > 100 µM (inactive); in the experiment with CAKI-1 it was 19.7 µM (inactive); with COLO 205, > 100 µM (inactive); in the experiment with HCT-116 it was 92.9 µM (inactive); in the experiment on HCT-15, 57.8 µM. The GI50 in the experiment on HOP-92 was 74.1 µM (inactive); in the experiment on Hs-578T, > 100 µM (inactive); in the experiment on KM12, 17.3 µM (inactive); with MCF7 it was 36.7 µM (inactive); in the experiment with MDA-N, > 100 µM (inactive); in the experiment with NCI-H226 it was > 100 µM (inactive). Also, the GI50 in the experiment with NCI-H23 was > 100 µM (inactive); with NCI-H460, 31.4 µM (inactive); in the experiment on PC-3, 63.4 µM (inactive); in the experiment with RPMI-8226 it was 63.8 µM (inactive); in the experiment with SF-268, > 100 µM (inactive); in the experiment with SK-MEL-5 it was 43.3 µM (inactive). Also, the GI50 in the experiment with UACC-257 and in the experiment on UO-31 was > 100 µM (inactive) throughout.
`CC(=O)OCC1OC(N2C(C)=C(C(C)=O)C(c3ccc(Cl)cc3)C(C#N)=C2S)C(OC(C)=O)C(OC(C)=O)C1OC(C)=O` (stereo not given): the GI50 in the experiment with A498 was 38.2 µM (inactive); in the experiment with ACHN it was 77.8 µM (inactive); in the experiment on CAKI-1, > 100 µM (inactive); with COLO 205, 19.4 µM (inactive); with HCT-116, 36.7 µM (inactive); with HCT-15, 41.3 µM. The GI50 was 33.6 µM (inactive) with HOP-92; 28.5 µM (inactive) in the experiment with Hs-578T; 79.8 µM (inactive) in the experiment with KM12; 47 µM (inactive) with MCF7; 42.5 µM (inactive) in the experiment with MDA-N; 44.1 µM (inactive) in the experiment on NCI-H226. The GI50 is > 10 µM (inactive) in the experiment with NCI-H23; 45.1 µM (inactive) in the experiment with NCI-H460; 36 µM (inactive) with PC-3; 37.9 µM (inactive) in the experiment with RPMI-8226; 65.8 µM (inactive) in the experiment on SF-268; 32.3 µM (inactive) in the experiment with SK-MEL-5. Moreover, the GI50 is 48.8 µM (inactive) in the experiment on UACC-257 and 36.8 µM (inactive) in the experiment with UO-31.
As for `O=C1c2ccccc2S(=O)(=O)c2ccccc21`, the GI50 in the experiment on A498 is > 100 µM (inactive); with ACHN, > 100 µM (inactive); with CAKI-1 it was > 100 µM (inactive); in the experiment with COLO 205, > 100 µM (inactive); with HCT-116 it was > 100 µM (inactive); in the experiment with HCT-15, more than 100 µM. In addition, the GI50 is > 100 µM (inactive) with HOP-92; 72.1 µM (inactive) in the experiment with Hs-578T; > 100 µM (inactive) with KM12; > 100 µM (inactive) with MCF7; > 100 µM (inactive) in the experiment with MDA-N; > 100 µM (inactive) with NCI-H226. Moreover, the GI50 with NCI-H23, in the experiment with NCI-H460, with PC-3, with RPMI-8226, with SF-268 and in the experiment with SK-MEL-5 was > 100 µM (inactive) throughout. The GI50 in the experiment with UACC-257 and with UO-31 was > 100 µM (inactive) in each case.
`COc1ccc(N/N=C/C2=CC(C)(C)C(C#N)(C#N)C(O)=C2C#N)cc1`: the GI50 with A498 is 37.9 µM (inactive); in the experiment with ACHN, 40.4 µM (inactive); with CAKI-1, 36.6 µM (inactive); in the experiment with COLO 205 it was 22.5 µM (inactive); in the experiment on HCT-116, 39 µM (inactive); with HCT-15, 14.1 µM. Besides, the GI50 with HOP-92 was 17.1 µM (inactive); in the experiment with Hs-578T, 44.7 µM (inactive); in the experiment with KM12, 32.5 µM (inactive); in the experiment with MCF7 it was 35.8 µM (inactive); in the experiment on MDA-N, 54.5 µM (inactive); in the experiment with NCI-H226, 77.8 µM (inactive). In addition, the GI50 in the experiment with NCI-H23 is 35.9 µM (inactive); in the experiment on NCI-H460, 20.9 µM (inactive); with PC-3 it was 27.8 µM (inactive); in the experiment on RPMI-8226, 35.6 µM (inactive); in the experiment with SF-268, 41 µM (inactive); in the experiment on SK-MEL-5, 69.7 µM (inactive). The GI50 in the experiment with UACC-257 is 25 µM (inactive); in the experiment with UO-31, 20.5 µM (inactive).

(Values after ChEMBL document CHEMBL1201862, “PubChem BioAssay data set” (2004).)
